Assay results published in US20210127709A1, “FEED ADDITIVE COMPRISING A TRP MODULATOR” (PerformaNat GmbH, priority 2018, published 2021).

Tested on: ruminal epithelium
Assay: Ussing chamber: transepithelial current and conductance
Format: cell-based
Conditions: sheep ruminal epithelium, mucosal addition, short-circuit mode, 37° C.
From the text: All sheep were slaughtered in accordance with German laws for the protection of animals. Removal of tissue occurred directly after death, was stripped and transported to the laboratory in a warm and gassed transport buffer.
The tissue was mounted into conventional Ussing chambers with an exposure area of 3.14 cm^2 (as described in (Martens and Gabel, 1988, Transport of Na and Cl across the epithelium of ruminant forestomachs: rumen and omasum. A review. Comparative Biochemistry and Physiology Part A: Physiology 90, 569-575)). The chambers contained 16 ml of mucosal and serosal buffer, which was circulated with a gas lift system and warmed to 37° C. with a water jacket.
After ten minutes the chambers were clamped to short circuit mode (Mussler Scientific Instruments, Aachen, Germany). Transepithelial current (Isc) and conductance (Gt) were measured continuously.
After an equilibration time of about 30 min under short-circuit conditions, the Ussing chambers were divided into two groups, depending on the transepithelial conductance of the tissues inside the chambers. Group 1 (TRP-group) and Group 2 (TRP-PG-group.)
Depending on the group 4.8 μl of TRP agonist combined with propylene glycol or 2.4 mg of TRP Agonist was added to the mucosal side of the tissues. Transepithelial current (Isc) and transepithelial conductance (Gt) were measured continuously. […]

SMILES: CC1CCC(C(C)C)C(O)C1 (centres unmarked) [TRP (menthol), menthol]
- Transepithelial conductance (Gt), maximum increase after addition, mean: +0.563
- Transepithelial current (Isc), maximum increase after addition, mean: +0.727
